From patent US20250214998A1, “CYCLIC COMPOUNDS AS RECEPTOR MODULATING THERAPEUTICS AND METHODS AND USES THEREOF” (BIONOMICS LIMITED, priority 2018, published 2025)

Key:
MDCK-MDR1 cells = test: A2B permeability (Papp) in MDCK-MDR1 cell monolayers; format: in vitro ADME; parameters: dose or concentration left out as unconfirmed; settings: MDCK-MDR1 monolayer, A-B direction, HBSS pH 7.4, 60 min, 37° C.
Description: (§1) MDCK-MDR1 cells obtained from the NIH (Rockville, MD, USA) are used between passage numbers 6-30. Cells are seeded onto Millipore Multiscreen Transwell plates at 3.4×10^5 cells/cm2. The cells are cultured in DMEM and media is changed on day 3. On day 4 the permeability study is performed. Cell culture and assay incubations are carried out at 37° C. in an atmosphere of 5% CO2 with a relative humidity of 95%. On the day of the assay, the monolayers are prepared by rinsing both apical and basolateral surfaces twice with Hanks Balanced Salt Solution (HBSS) at the desired pH warmed to 37° C. Cells are then incubated with HBSS at the desired pH in both apical and basolateral compartments for 40 min to stabilise physiological parameters.
(§2) The dosing solutions are prepared by diluting test compound with assay buffer to give a final test compound concentration of […] (final DMSO concentration of 1% v/v). The fluorescent integrity marker lucifer yellow is also included in the dosing solution. […]
(§3) Test compound permeability is assessed in duplicate. […]
(§4) Test and control compounds are quantified by LC-MS/MS cassette analysis using a 7-point calibration with appropriate dilution of the samples. […] The starting concentration (CO) is determined from the dosing solution and the experimental recovery calculated from CO and both apical and basolateral compartment concentrations.
(§5) The integrity of the monolayer throughout the experiment is checked by monitoring lucifer yellow permeation using fluorimetric analysis. […] If a lucifer yellow Papp value is above a pre-defined threshold in one well, but the derived Papp result for test compound or marker compound in that well is qualitatively similar to that determined in the remaining replicate well (within the lucifer yellow threshold) then, based upon the scientific judgement of the responsible scientist, the cell monolayer may be considered acceptable. […] If this re-occurs upon repeat in both wells then toxicity or inherent fluorescence of the test compound is assumed. […]

[1] = as above; format: in vitro ADME; parameters: dose or concentration left out as unconfirmed; settings: dog; MDCK-MDR1 monolayer, A-B direction, HBSS pH 7.4, 60 min, 37° C.
Description: as §1, §2, §3, §4, §5

Papp A→B at 60 min [1] [×10⁻⁶ cm/s] | SMILES | A2B Papp (MDCK-MDR1 cells)
– | CCn1cc(C(=O)N2C3COCC2C3)c(=O)c2cc(OC3Cc4ccccc4C3)cnc21 [Example 16, 1-Ethyl-6-indan-2-yloxy-3-(3-oxa-6-azabicyclo[3.1.1]heptane-6-carbonyl)-1,8-naphthyridin-4-one] | 16 2.06 10^−6 cm/s
0.87 | CCn1cc(C(=O)N2C[C@H]3C[C@@H]2CO3)c(=O)c2cc(OC3Cc4ccccc4C3)cnc21 (stereo in doubt) [Example 17, 1-Ethyl-6-indan-2-yloxy-3-[(1R,4R)-2-oxa-5-azabicyclo[2.2.1]heptane-5-carbonyl]-1,8-naphthyridin-4-one] | –
– | CCn1cc(C(=O)N2CC3(CCOCC3)C2)c(=O)c2cc(OC3Cc4ccccc4C3)cnc21 [Example 23, 1-Ethyl-6-indan-2-yloxy-3-(7-oxa-2-azaspiro[3.5]nonane-2-carbonyl)-1,8-naphthyridin-4-one] | 23 1.24 10^−6 cm/s
